According to patent publication EP0508725A1, “Novel process for the preparation of 8a-aza-8a-homoerythromycin cyclic iminoethers” (MERCK & CO. INC., priority 1991, dated 1992):

How the values were obtained:
Experiment in all cases: MIC, liquid turbidimetric microtiter method in brain heart infusion broth
Assay type in all cases: cell-based
[1] = system: Staphylococcus haemolyticus MB 5412
Source text: (§1) The antibacterial activities of compound (VII) against a panel of aerobic Gram positive and negative bacteria is shown in the following Table. The assay employs a liquid turbidimetric microtiter method for the determination of the minimum inhibitory concentration (MIC) in brain heart infusion broth. […] The MIC is generally not an absolute value but rather a concentration ranged that falls within a two-fold dilution limit. Generally twelve two-fold dilutions of the test compound are employed with the initial concentration set at 128 mcg/ml.

[2] = system: Enterococcus faecium MB 5416
Source text: as §1

[3] = system: Pseudomonas stutzeri MB 1231
Source text: as §1

[4] = system: Streptococcus pyogenes MB 5406
Source text: as §1

[5] = system: Streptococcus pyogenes MB 2874
Source text: as §1

[6] = system: Staphylococcus epidermidis MB 5414
Source text: as §1

[7] = system: Steptococcus viridans CL 2943
Source text: as §1

[8] = system: Streptococcus agalactiae CL 1343
Source text: as §1

[9] = system: Enterococcus faecalis MB 5407
Source text: as §1

[10] = system: Klebsiella pneumoniae MB 4005
Source text: as §1

[11] = system: Streptococcus pneumoniae CL 2883
Source text: as §1

[12] = system: Yersinia enterocoltica CL 1598
Source text: as §1

Escherichia coli MB 4926 = system: Escherichia coli MB 4926
Source text: as §1

[13] = system: Staphylococcus aureus MB 2865
Source text: as §1

Escherichia coli MB 2884 = system: Escherichia coli MB 2884
Source text: as §1

MIC Values [2]: 8 mcg/m
MIC Values [3]: 0.5 mcg/m
MIC Values [4]: 128 mcg/m
MIC Values [5]: 1 mcg/m
MIC Values [6]: 32 mcg/m
MIC Values [7]: 16 mcg/m
MIC Values [8]: 1 mcg/m
MIC Values [9]: 32 mcg/m
MIC Values [10]: >128 mcg/m
MIC Values [11]: 0.5 mcg/m
MIC Values [12]: 128 mcg/m
MIC Values (Escherichia coli MB 4926): 8 mcg/m
MIC Values [13]: 16 mcg/m
MIC Values (Escherichia coli MB 2884): 128 mcg/m
SMILES: CC[C@H]1OC(=O)[C@H](C)[C@@H](O[C@H]2C[C@@](C)(OC)[C@@H](O)[C@H](C)O2)[C@H](C)[C@@H](O[C@@H]2O[C@H](C)C[C@H](N(C)C)[C@H]2O)[C@](C)(O)C[C@@H](C)N=C2O[C@@]1(C)[C@H](O)[C@H]2C [Compound (VII), 9-Deoxo-12-deoxy-9,12-epoxy-8a,9-didehydro-8a-aza-8a-homoerythromycin A]
MIC Values [1]: 8 mcg/m
